Data as given in US12492163B2, “9H-fluorene derivatives or their pharmaceutically acceptable salts” (priority 2020, dated 2025).

Key:
C57BL/6J mice = test: Morris water maze test (scopolamine); type: in vivo, Mus musculus
Description: The research was conducted at the Department of Pharmacodynamics, Faculty of Pharmacy, Jagiellonian University in Krakow. All procedures were approved by the 1st and 2nd Local Ethics Committee for Animal Experiments in Krakow (consent no. 53/2017 and 250/2019) and were performed in accordance with the applicable European Union regulation (86/609/EEC). Males of two different strains of domestic mice (Mus musculus) were used in the study: Albino Swiss CD-1 (body weight approx. 20-24 g, age approx. 6 weeks) and C57BL/6J mice (body weight approx. 18-22 g, age approx. 6 weeks). […]
At this stage of the study, each mouse underwent four trials every day (trial interval approx. 1 hour). […] During the acquisition (learning) phase, the time and distance traveled to find the platform were measured. Additionally, the trajectories of movement in the pool were analyzed. […] The latency of finding the place where the platform was previously (during the acquisition/learning phase) was measured, as well as the number of crossings through the zone, where the platform was in the acquisition phase. In addition, the total residence time and distance traveled in the relevant quadrant of the pool (in the NW zone where the platform was at the time of acquisition) were measured, as well as the speed and total distance traveled by the animal during the 60 s of the test. […]

Albino Swiss CD-1 mice = test: Passive avoidance task (scopolamine-induced memory disorders); type: in vivo, Mus musculus; settings: scopolamine 1 mg/kg s.c.
Description: The research was conducted at the Department of Pharmacodynamics, Faculty of Pharmacy, Jagiellonian University in Krakow. All procedures were approved by the 1st and 2nd Local Ethics Committee for Animal Experiments in Krakow (consent no. 53/2017 and 250/2019) and were performed in accordance with the applicable European Union regulation (86/609/EEC). Males of two different strains of domestic mice (Mus musculus) were used in the study: Albino Swiss CD-1 (body weight approx. 20-24 g, age approx. 6 weeks) and C57BL/6J mice (body weight approx. 18-22 g, age approx. 6 weeks). The CD-1 strain was used for the passive avoidance, spontaneous mobility and rotating rod tests, while the C57BL/6J mice were used for the Morris water maze and the Barnes' maze. The animals were kept in standard, appropriately sized cages, divided into groups with a maximum of 10 animals. The animals in the study groups in the learning phase were intraperitoneally administered the test compound 1 h before the start of the experiments (doses in the preliminary test, i.e. in the passive avoidance test: 10, 30 and 60 mg/kg), and 30 minutes later, 1 mg/kg of scopolamine subcutaneously. Two control groups were used in the tests to assess the procognitive activity of JT-3—one of them received saline and the other saline and scopolamine.
The test assesses contextual memory. The apparatus consists of two chambers (white: 26 cm×26 cm×34 cm; dark: 13 cm×7.5 cm×7.5 cm) separated by a door. The test consists of a two-day procedure. On the first day (acquisition phase), test compound or saline was administered to the animals 1 h prior to testing (i.p. administration). In order to induce memory disorders, scopolamine (1 mg/kg, s.c.) was also administered after 30 min. On the first day of testing, the mouse was placed in the white compartment. […] The latency of entry into the dark chamber was measured. […] After 30 s the door between the compartments was opened and, similarly to the acquisition phase, the latency time of entering the dark compartment was measured. […]

[1] = molecular target: human recombinant beta-secretase (hBACE1) (Homo sapiens (Human), UniProt P56817); test: FRET assay, inhibition of human recombinant beta-secretase; type: biochemical; settings: 50 μM inhibitor concentration; read-out: hBACE-1 % inh
Method in brief: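 hBACE1 (added as 1 U/ml solution) cleaves a rhodamine/quencher peptide based on the Swedish APP mutation in 50 mM sodium acetate pH 4.5, 60 min at 25 °C, stopped with 2.5 M sodium acetate; fluorescence at 576 nm. % inhibition from 0–60 min signal change versus enzyme-only blanks; screened at 50 μM in triplicate; IC50 by non-linear regression.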

Chain of human recombinant beta-secretase (hBACE1) (P56817 46-501): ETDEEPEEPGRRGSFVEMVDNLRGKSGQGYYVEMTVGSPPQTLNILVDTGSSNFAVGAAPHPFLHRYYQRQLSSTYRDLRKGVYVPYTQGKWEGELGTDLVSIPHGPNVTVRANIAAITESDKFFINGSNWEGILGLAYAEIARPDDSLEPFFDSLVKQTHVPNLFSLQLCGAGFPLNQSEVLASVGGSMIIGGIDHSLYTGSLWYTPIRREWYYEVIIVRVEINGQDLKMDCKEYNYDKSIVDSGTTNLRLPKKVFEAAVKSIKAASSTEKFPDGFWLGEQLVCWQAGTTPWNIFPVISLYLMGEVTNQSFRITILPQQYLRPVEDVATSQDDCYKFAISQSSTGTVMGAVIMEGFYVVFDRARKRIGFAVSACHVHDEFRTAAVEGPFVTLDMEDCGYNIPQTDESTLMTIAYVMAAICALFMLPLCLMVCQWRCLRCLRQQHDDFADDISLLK

SMILES: O[C@H](CNCC1CC1)[C@H](Cc1ccccc1)NC1c2ccccc2-c2ccccc21 [JT-3, (2R,3S)-3-((9H-fluoren-9-yl)amino)-1-((cyclopropylmethyl)amino)-4-phenylbutan-2-ol]
- latency to find the hidden platform, acquisition phase vs scopolamine control (C57BL/6J mice; 10 mg/kg i.p., fifth day of the test, p<0.01): statistically significant difference
- recall phase parameters (time, crossings, distance, entries in NW zone) (C57BL/6J mice; seventh day, 10 mg/kg i.p. on days 1-6): did not affect any of the parameters studied
- latency of entry into the dark compartment, recall phase (day 2) vs scopolamine control (Albino Swiss CD-1 mice; 10 mg/kg i.p., p<0.01): statistically significant difference
- latency of entry into the dark compartment, recall phase (day 2) vs scopolamine control (Albino Swiss CD-1 mice; 30 mg/kg i.p.): not active
- latency of entry into the dark compartment, recall phase (day 2) vs scopolamine control (Albino Swiss CD-1 mice; 60 mg/kg i.p.): not active
- inhibition at 50 µM [1]: 61.3%
